Measurements taken from patent US5873359A, “Methods and devices for treating pulmonary vasoconstriction and asthma” (The General Hospital Corporation, priority 1994, dated 1999).

Experiments:
[1] = test system: experimentally-elevated PA pressure; test: SNAP inhalation in sheep with experimentally-elevated PA pressure; format: in vivo; conditions: inhalation 1.3 mg/kg
Excerpt: This method will provide a longer-lasting beneficial effect than briefly inhaling gaseous NO, as the deposited NO-releasing compound would slowly release NO over a relatively long period of time. Formulation and dosage of a selected NO-releasing compound can be determined without undue experimentation by one of ordinary skill in the art. As one example, a typical single inhaled dose of an NO-releasing compound such as S-nitroso-N-acetylpenicillamine (SNAP) or S-nitrosocysteine in dry powder form could range from 60 to 650 μg of the active compound (NO) per kg bodyweight, for approximately an hour of dilation.

[2] = cited from earlier work
Stability of SNAP = format: physicochemical; conditions: crystals at 0° C., up to 120 days, absorbance at 595 nm
Excerpt: Alternatively, a mammal (in particular, a human) with or at risk of developing bronchoconstriction (e.g., asthma) or reversible pulmonary vasoconstriction may be treated with a therapeutically-effective amount of a nitric oxide-releasing compound. Known nitric oxide-releasing compounds (also referred to as nitric oxide-donor or nitric oxide-generating compounds) useful in the methods and devices of the invention can be divided into three categories: (a) nitroso or nitrosyl compounds (e.g., S-nitroso-N-acetylpenicillamine, S-nitroso-L-cysteine, and nitrosoguanidine) characterized by an --NO moiety that is spontaneously released or otherwise transferred from the compound under physiological conditions such as obtain in the lung; (b) compounds in which NO is a ligand on a transition metal complex, and as such is readily released or transferred from the compound under physiological conditions (e.g., nitroprusside, NO-ferredoxin, or an NO-heme complex); and (c) nitrogen-containing compounds which are metabolized by enzymes endogenous to the respiratory and/or vascular system to produce the NO radical (e.g., arginine, glyceryl trinitrate, isoamyl nitrite, inorganic nitrite, azide, and hydroxylamine). […]

[3] = test system: methacholine bronchoconstriction; test: SNAP aerosol during methacholine bronchoconstriction; format: in vivo, Hartley strain guinea pigs; conditions: nebulized, 20 breaths, 5 guinea pigs (FIG. 16)
Description: Male Hartley strain guinea pigs (300-440g body wt) were anesthetized with α-chloralose (50 mg/kg) and urethane (500 mg/kg) (Drazen et al., J. Appl. Physiol. 48:613-618, 1980). A tracheostomy was performed, and the animals were intubated with a tubing adaptor (ID 1.65 mm) and ventilated with a small animal ventilator (Harvard Apparatus, a division of Ealing Scientific, Natick, Mass.) at 8 ml/kg and 60 breaths/min. A jugular vein was cannulated for intravenous administration of drugs. The chest was opened by bilateral excision of a portion of the ribs anteriorly so that the lungs were exposed to atmospheric pressure (Shore and Drazen, J. Appl. Physiol. 67:2504-2511, 1989). A positive end expiratory pressure of 3-4 cmH2 O was provided.
Guinea pigs were then placed inside a plethysmograph (Amdur and Mead, Am. J. Physiol. 192:363-368, 1958), that was connected to a large reservoir containing copper mesh to maintain the plethysmograph isothermal. Plethysmograph pressure was measured with a differential pressure transducer (Celesco, Canoga Park, Calif.); the opposite side of this transducer was connected to a similar reservoir. Pressure at the airway opening was measured from a side tap in the tracheal canula. Transpulmonary pressure was measured with a differential pressure transducer (Celesco) as the difference between airway opening pressure and the pressure inside the plethysmograph. […]

For CC(=O)N[C@H](C(=O)O)C(C)(C)SN=O (racemic) [SNAP, S-nitroso-N-acetylpenicillamine], the PA pressure [1] is listed as “prolonged reduction in PA pressure”, the “stability of solid form” value ([2]; solid form) is listed as “stable in its solid form” and the “decomposition to release NO” value ([2]; under physiological conditions) is listed as “readily decomposes to release NO”. The degradation on storage (Stability of SNAP) was “without detectable degradation”, the “duration of reduction of lung resistance” value [3] was “about 15 minutes” and the lung resistance [3] was “prompt and profound reduction of lung resistance”.
